How the values were obtained:
IRAK4 = biological target: T1, IRAK4 (Homo sapiens, UniProt Q9NWZ3); test: IRAK4 enzymatic assay (ADP-Glo luminescence); assay type: biochemical; conditions: purified human recombinant His-TEV-IRAK4 (1-460), ATP 2 μM
T1 construct: His-TEV-IRAK4 (1-460); His (N); TEV cleavage site (N)
T1 sequence (Q9NWZ3 1-460): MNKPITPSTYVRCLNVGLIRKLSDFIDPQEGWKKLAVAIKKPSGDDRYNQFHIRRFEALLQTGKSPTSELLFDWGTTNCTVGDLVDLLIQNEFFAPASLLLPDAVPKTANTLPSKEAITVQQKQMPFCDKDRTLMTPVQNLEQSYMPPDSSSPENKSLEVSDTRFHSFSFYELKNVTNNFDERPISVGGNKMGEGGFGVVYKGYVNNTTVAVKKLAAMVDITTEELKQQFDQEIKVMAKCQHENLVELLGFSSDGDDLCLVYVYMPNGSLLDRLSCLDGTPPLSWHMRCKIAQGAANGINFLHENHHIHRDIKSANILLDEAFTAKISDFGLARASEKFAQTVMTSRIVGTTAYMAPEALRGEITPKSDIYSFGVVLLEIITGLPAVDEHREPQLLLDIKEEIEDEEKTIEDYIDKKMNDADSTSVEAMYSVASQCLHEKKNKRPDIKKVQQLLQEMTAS
Method: IRAK4 is a human purified recombinant enzyme (His-TEV-IRAK4 (1-460)).
In this assay, IRAK4 hydrolyses ATP, autophosphorylates and phosphorylates a Serine/Threonine generic peptidic substrate (STK: 61ST1BLC from CisBio International). Measurement of IRAK-4 inhibition is performed in 384-well format based on a luminescence assay (ADP-Glo™ Kinase Assay from Promega). Purified human recombinant IRAK4 (0.3 μg/ml) and serial diluted compounds in DMSO (range of concentration from 10 μM to 0.5 nM) or controls (1% DMSO) are incubated for 15 minutes at RT in assay buffer containing 50 mM Hepes pH 7.0, Fatty acid-free BSA 0.1%, Dithiothreitol (DTT) 2 mM, MgCl2 10 mM, EGTA 0.5 mM, Triton X-100 0.01%, MnCl2 5 mM. The kinase reaction is then initiated by the addition of ATP (2 μM) and the peptidic substrate STK1-biotin peptide (300 nM). After 2 hours of incubation at RT, the reaction is stopped and the unconsumed ATP depleted by the addition of ADP-Glo™ Reagent according to supplier instructions. After 40 minutes of incubation at RT, the Kinase Detection Reagent is then added to the assay plate according to supplier instructions. After 20 minutes of incubation at RT, the luminescence signal is measured with a plate-reading luminometer (PerkinElmer Envision or equivalent reader).

IRAK1 = biological target: T2, IRAK1 (Homo sapiens, UniProt P51617); test: IRAK1 enzymatic assay (ADP-Glo luminescence); assay type: biochemical; conditions: purified human recombinant His-TEV-IRAK1 (194-712)
T2 construct: His-TEV-IRAK1 (194-712); His (N); TEV cleavage site (N)
Method: IRAK1 is a human purified recombinant enzyme (His-TEV-IRAK1 (194-712))
In this assay, IRAK1 hydrolyses ATP and autophosphorylates. Measurement of IRAK-1 inhibition is performed in 384-well format based on luminescence assay (ADP-Glo™ Kinase Assay from Promega). Purified human recombinant IRAK1 (0.3 μg/ml) and serial diluted compounds in DMSO (range of concentration from 10 μM to 0.5 nM) or controls (1% DMSO) are incubated for 15 minutes at RT in assay buffer containing 50 mM Hepes pH 7.0, Fatty acid-free BSA 0.1%, Dithiothreitol (DTT) 2 mM, MgCl2 10 mM, EGTA 0.5 mM, Triton X-100 0.01%. The kinase reaction is then initiated by the addition of ATP […] After 2 hours of incubation at RT, the reaction is stopped and the unconsumed ATP depleted by the addition of ADP-Glo™ Reagent according to supplier instructions. After 40 minutes of incubation at RT, the Kinase Detection Reagent is then added to the assay plate according to supplier instructions. After 20 minutes of incubation at RT, the luminescence signal is measured with a luminometer (PerkinElmer Envision or equivalent reader).

T2 sequence (P51617 194-712): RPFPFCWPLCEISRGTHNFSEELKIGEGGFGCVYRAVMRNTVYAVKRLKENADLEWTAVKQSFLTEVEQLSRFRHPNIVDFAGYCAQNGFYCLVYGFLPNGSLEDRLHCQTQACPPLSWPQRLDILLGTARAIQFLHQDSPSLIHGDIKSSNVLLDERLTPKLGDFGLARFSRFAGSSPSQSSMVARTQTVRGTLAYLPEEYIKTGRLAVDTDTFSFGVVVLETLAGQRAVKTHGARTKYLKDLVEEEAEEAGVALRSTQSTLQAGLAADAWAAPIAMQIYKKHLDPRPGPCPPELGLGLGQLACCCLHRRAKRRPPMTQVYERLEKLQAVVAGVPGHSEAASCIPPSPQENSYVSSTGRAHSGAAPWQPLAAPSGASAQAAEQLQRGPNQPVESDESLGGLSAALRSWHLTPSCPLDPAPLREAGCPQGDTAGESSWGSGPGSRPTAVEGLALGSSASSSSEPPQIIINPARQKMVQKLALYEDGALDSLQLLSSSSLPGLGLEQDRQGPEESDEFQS

SMILES	IC50 (IRAK4) [nM]	IC50 (IRAK1) [nM]
O=C(/N=c1\[nH]c2cc(N3CCOCC3=O)ccc2n1CCCO)c1cccc(-n2cnnc2)c1 [Compound 2, (E)-N-(1-(3-hydroxypropyl)-5-(3-oxomorpholino)-1H-benzo[d]imidazol-2(3H)-ylidene)-3-(4H-1,2,4-triazol-4-yl)benzamide]	100 to 1000	100 to 1000
O=C(/N=c1\[nH]c2cc(N3CC4CCC(C3=O)N4C3CC3)ccc2n1CCCO)c1cccc(C(F)F)c1 (stereo not shown) [Example 214, (E)-N-(5-(8-cyclopropyl-2-oxo-3,8-diazabicyclo[3.2.1]octan-3-yl)-1-(3-hydroxypropyl)-1H-benzo[d]imidazol-2(3H)-ylidene)-3-(difluoromethyl)benzamide]	≤ 100	100 to 1000
C[C@H](CCO)n1/c(=N/C(=O)c2cccc(C(F)(F)F)c2)[nH]c2cc(N3CCOCC3=O)ccc21 [Compound 15, (R,E)-N-(1-(4-hydroxybutan-2-yl)-5-(3-oxomorpholino)-1H-benzo[d]imidazol-2(3H)-ylidene)-3-(trifluoromethyl)benzamide]	≤ 100	100 to 1000
COc1cc2c(cc1N1CCOCC1=O)[nH]/c(=N\C(=O)c1cccc(C(F)F)c1)n2CC1(CO)CC1 [Compound 52, (E)-3-(difluoromethyl)-N-(1-((1-(hydroxymethyl)cyclopropyl)methyl)-6-methoxy-5-(3-oxomorpholino)-1H-benzo[d]imidazol-2(3H)-ylidene)benzamide]	≤ 100	≤ 100
O=C(/N=c1\[nH]c2cc(N3CCN(CC(F)(F)F)CC3=O)ccc2n1CCCO)c1cccc(C(F)F)c1 [Compound 113, (E)-3-(difluoromethyl)-N-(1-(3-hydroxypropyl)-5-(2-oxo-4-(2,2,2-trifluoroethyl)piperazin-1-yl)-1H-benzo[d]imidazol-2(3H)-ylidene)benzamide]	≤ 100	100 to 1000
O=C(/N=c1\[nH]c2cc(-n3ccccc3=O)ccc2n1CCCO)c1cccc(C(F)(F)F)c1 [Example 193, (E)-N-(1-(3-hydroxypropyl)-5-(2-oxopyridin-1(2H)-yl)-1H-benzo[d]imidazol-2(3H)-ylidene)-3-(trifluoromethyl)benzamide]	≤ 100	100 to 1000
O=C(/N=c1\[nH]c2cc(N3CCOCC3=O)ccc2n1C1CCCCC1)c1cccc(C(F)(F)F)c1 [Compound 45, (E)-N-(1-cyclohexyl-5-(3-oxomorpholino)-1H-benzo[d]imidazol-2(3H)-ylidene)-3-(trifluoromethyl)benzamide]	100 to 1000	> 1000
O=C(/N=c1\[nH]c2cc(N3CCOCC3=O)c(Br)cc2n1CCCO)c1cccc(C(F)F)c1 [Compound 49, (E)-N-(6-bromo-1-(3-hydroxypropyl)-5-(3-oxomorpholino)-1H-benzo[d]imidazol-2(3H)-ylidene)-3-(difluoromethyl)benzamide]	≤ 100	100 to 1000
O=C(/N=c1\[nH]c2cc(N3CCOCC3=O)ccc2n1[C@H]1CC[C@@H](O)CC1)c1cccc(C(F)(F)F)c1 [Compound 57, cis-(E)-N-(1-(4-hydroxycyclohexyl)-5-(3-oxomorpholino)-1H-benzo[d]imidazol-2(3H)-ylidene)-3-(trifluoromethyl)benzamide]	≤ 100	≤ 100
O=C(/N=c1\[nH]c2cc(N3CCCOC3=O)ccc2n1C1CCC1)c1cccc(C(F)(F)F)c1 [Compound 170, (E)-N-(1-cyclobutyl-5-(2-oxo-1,3-oxazinan-3-yl)-1H-benzo[d]imidazol-2(3H)-ylidene)-3-(trifluoromethyl)benzamide]	≤ 100	> 1000
O=C(/N=c1\[nH]c2cc(N3CCNCC3=O)ccc2n1CCCO)c1cccc(C(F)(F)F)c1 [Compound 108, (E)-N-(1-(3-hydroxypropyl)-5-(2-oxopiperazin-1-yl)-1H-benzo[d]imidazol-2(3H)-ylidene)-3-(trifluoromethyl)benzamide]	≤ 100	≤ 100
O=C(/N=c1\[nH]c2cc(N3CCOCC3=O)ccc2n1[C@H]1CCCC[C@@H]1CO)c1cccc(C(F)(F)F)c1 (racemic) [Compound 118, rac-(E)-N-(1-((1S,2S)-2-(hydroxymethyl)cyclohexyl)-5-(3-oxomorpholino)-1H-benzo[d]imidazol-2(3H)-ylidene)-3-(trifluoromethyl)benzamide]	≤ 100	100 to 1000

More lines, now with the values ahead:

IC50 (IRAK4) [nM]	IC50 (IRAK1) [nM]	SMILES
≤ 100	≤ 100	CC1(C)CCOC(=O)N1c1ccc2c(c1)[nH]/c(=N\C(=O)c1cccc(C(F)F)c1)n2CCCO [Example 218, (E)-3-(difluoromethyl)-N-(5-(4,4-dimethyl-2-oxo-1,3-oxazinan-3-yl)-1-(3-hydroxypropyl)-1H-benzo[d]imidazol-2(3H)-ylidene)benzamide]
≤ 100	≤ 100	O=C(/N=c1\[nH]c2cc(N3CCOCC3=O)ccc2n1C1CCS(=O)(=O)CC1)c1cccc(C(F)F)c1 [Compound 80, (E)-3-(difluoromethyl)-N-(1-(1,1-dioxidotetrahydro-2H-thiopyran-4-yl)-5-(3-oxomorpholino)-1H-benzo[d]imidazol-2(3H)-ylidene)benzamide]
≤ 100	≤ 100	CC(=O)N1CCN(c2ccc3c(c2)[nH]/c(=N\C(=O)c2cccc(C(F)F)c2)n3CCCO)C(=O)C1 [Compound 110, (E)-N-(5-(4-acetyl-2-oxopiperazin-1-yl)-(1-(3-hydroxypropyl)-1H-benzo[d]imidazol-2(3H)-ylidene))-3-(difluoromethyl)benzamide]
≤ 100	> 1000	Cc1ccc(C(=O)/N=c2\[nH]c3cc(N4CCOCC4=O)ccc3n2CCCO)cc1C(F)(F)F [Compound 78, (E)-N-(1-(3-hydroxypropyl)-5-(3-oxomorpholino)-1H-benzo[d]imidazol-2(3H)-ylidene)-4-methyl-3-(trifluoromethyl)benzamide]
≤ 100	≤ 100	O=C(/N=c1\[nH]c2cc(N3CCOCC3=O)ccc2n1CC1(CO)CC1)c1cccc(C(F)F)c1 [Compound 14, (E)-3-(difluoromethyl)-N-(1-((1-(hydroxymethyl)cyclopropyl)methyl)-5-(3-oxomorpholino)-1H-benzo[d]imidazol-2(3H)-ylidene)benzamide]
≤ 100	≤ 100	CC1(C)C(=O)N(c2ccc3c(c2)[nH]/c(=N\C(=O)c2cccc(C(F)F)c2)n3CCCO)CCN1C1CC1 [Example 188, (E)-N-(5-(4-cyclopropyl-3,3-dimethyl-2-oxopiperazin-1-yl)-1-(3-hydroxypropyl)-1H-benzo[d]imidazol-2(3H)-ylidene)-3-(difluoromethyl)benzamide]
≤ 100	≤ 100	[2H]C([2H])([2H])Oc1cc2c(cc1N1CCOCC1=O)[nH]/c(=N\C(=O)c1cccc(C(F)F)c1)n2CCCO [Example 203, (E)-3-(difluoromethyl)-N-(1-(3-hydroxypropyl)-6-(trideuteromethoxy)-5-(3-oxomorpholino)-1H-benzo[d]imidazol-2(3H)-ylidene)benzamide]
≤ 100	100 to 1000	CC(C)(C)OC(=O)N1CCC(n2/c(=N/C(=O)c3cccc(C(F)F)c3)[nH]c3cc(N4CCOCC4=O)ccc32)CC1 [Compound 127, (E)-tert-butyl 4-(2-((3-(difluoromethyl)benzoyl)imino)-5-(3-oxomorpholino)-2,3-dihydro-1H-benzo[d]imidazole-1-yl)piperidine-1-carboxylate]

— US10059701B2 (Merck Patent GmbH, priority 2015, dated 2018)
